In data set [1] the test system is Poliovirus type 1 (Sabin).
Data set [2] deals with eight bacterial strains representing four bacterial genera (Staphylococcus, Pseudomonas, Klebsiella, Enterococcus).
The subject of a further data set is Hepatitis C. The data set is described as follows: trial on a Hepatitis C sufferer, ALT count as infection marker. The format is in vivo, human. The conditions noted are these: for reduction of ALT count: over 16 week trial period, same trialist, interferon 9 million IU weekly.
For data set [3] the following is noted: liquid containing reactive components.

`C=C` [ethene]: the “sterilizing effect in vitro” value in the data set on Influenza A (H3N2) was “not to be sterilized”; in data set [1] it was “not to be sterilized”; in the data set on Herpes simplex virus, “not to be sterilized”; in data set [2], “without apparent sterilizing success”. Besides, the “anti-Hepatitis C efficacy better than the interferon therapy” value with Hepatitis C (ALT reduction over 16 weeks) is on record as 337%. Further, the “depression (reported by trialist)” value in the data set on Hepatitis C (during therapy) was “significant lifting”. Further, the ALT count is 218 u/l in the data set on Hepatitis C (end of week 4 (from 242), daily 230 millilitres ethene gas in 745 millilitres purified water); 303 u/l in the data set with Hepatitis C (end of week 6); 93 u/l in the data set on Hepatitis C (end of week 14); 89 u/l in the data set on Hepatitis C (week 16). The infection symptoms result with Hepatitis C (first 18 days therapy) is reported as “amelioration of infection symptoms”. In the data set on Hepatitis C, the “reduction of ALT count” value came to 153 u/l. Further, the “reduction of ethene in solution by reaction with other components” value in data set [3] is given as 50%.

For the molecule interferon [reference compound], in the data set with Hepatitis C, the “reduction of ALT count” value is reported as 35 u/l.

The values above are taken from US6384086B1, “Ethene containing solutions and use thereof in methods of therapy or prophylaxis” (priority 1996, dated 2002).
